Results: ChEMBL document CHEMBL5465560, “Selectivity Literature for EUbOPEN Chemogenomic Library” (2024)

Columns and labels:
[1] = target: T1, Rhodopsin kinase GRK7 (Homo sapiens) (UniProt Q8WTQ7); assay: Selectivity interaction (Ambit KINOMEscan and KiNATiv profiling in Jurkat cells) EUB0000090b GRK7; assay type: cell-based; details: at 1 µM
T1 sequence (whole entry): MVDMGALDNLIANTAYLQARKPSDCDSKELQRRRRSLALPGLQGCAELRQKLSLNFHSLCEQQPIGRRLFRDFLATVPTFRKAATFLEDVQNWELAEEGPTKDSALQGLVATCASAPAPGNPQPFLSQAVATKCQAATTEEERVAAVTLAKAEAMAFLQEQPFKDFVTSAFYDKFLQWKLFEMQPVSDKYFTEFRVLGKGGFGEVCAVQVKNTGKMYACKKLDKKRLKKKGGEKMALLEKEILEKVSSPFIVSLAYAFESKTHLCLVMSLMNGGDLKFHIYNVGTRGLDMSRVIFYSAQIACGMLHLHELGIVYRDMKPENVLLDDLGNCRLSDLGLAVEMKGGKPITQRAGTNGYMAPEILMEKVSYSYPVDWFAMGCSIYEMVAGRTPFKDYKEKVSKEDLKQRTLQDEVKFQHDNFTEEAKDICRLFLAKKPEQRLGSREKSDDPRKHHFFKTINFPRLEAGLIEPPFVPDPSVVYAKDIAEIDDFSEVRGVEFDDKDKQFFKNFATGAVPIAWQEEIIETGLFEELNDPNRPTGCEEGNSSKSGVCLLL

[2] = target: T2, Aurora kinase A (Homo sapiens) (UniProt O14965); assay: Selectivity interaction (Kinase panel (DSF assay)) EUB0001559a STK6
T2 sequence (whole entry): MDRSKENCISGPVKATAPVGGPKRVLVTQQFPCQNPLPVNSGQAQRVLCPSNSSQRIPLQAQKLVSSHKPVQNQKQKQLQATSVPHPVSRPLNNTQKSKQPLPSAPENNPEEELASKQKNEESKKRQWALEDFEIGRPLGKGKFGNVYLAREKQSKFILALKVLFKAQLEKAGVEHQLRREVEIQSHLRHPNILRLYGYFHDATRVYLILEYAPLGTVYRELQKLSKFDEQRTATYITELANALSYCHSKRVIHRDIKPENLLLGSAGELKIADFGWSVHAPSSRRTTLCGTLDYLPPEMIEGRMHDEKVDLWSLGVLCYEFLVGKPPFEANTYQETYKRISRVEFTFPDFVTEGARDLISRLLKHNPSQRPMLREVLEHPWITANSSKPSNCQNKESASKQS

[3] = target: Tyrosine-protein kinase Fyn (Homo sapiens) (UniProt P06241); assay: Selectivity interaction (SelectScreen profiling (Invitrogen)) EUB0000607a FYN; details: at 2 µM
[4] = target: Calcium/calmodulin-dependent protein kinase type 1 (Homo sapiens) (UniProt Q14012); assay: Selectivity interaction (KinomeScan (DiscoverX)) EUB0001619a CAMK1; details: at 1 µM
[5] = test system: Tyrosine-protein kinase ABL1 (Homo sapiens), P00519 [F317I]; assay: Selectivity interaction (KinomeScan (DiscoverX)) EUB0000045b ABL1; details: at 10 µM
[6] = target: Serine/threonine-protein kinase pim-3 (Homo sapiens) (UniProt Q86V86); assay: Selectivity interaction (KinomeScan (DiscoverX)) EUB0000595a PIM3; details: at 10 µM
[7] = target: T3, Phosphatidylinositol 5-phosphate 4-kinase type-2 beta (Homo sapiens) (UniProt P78356); details: at 10 µM
T3 sequence (whole entry): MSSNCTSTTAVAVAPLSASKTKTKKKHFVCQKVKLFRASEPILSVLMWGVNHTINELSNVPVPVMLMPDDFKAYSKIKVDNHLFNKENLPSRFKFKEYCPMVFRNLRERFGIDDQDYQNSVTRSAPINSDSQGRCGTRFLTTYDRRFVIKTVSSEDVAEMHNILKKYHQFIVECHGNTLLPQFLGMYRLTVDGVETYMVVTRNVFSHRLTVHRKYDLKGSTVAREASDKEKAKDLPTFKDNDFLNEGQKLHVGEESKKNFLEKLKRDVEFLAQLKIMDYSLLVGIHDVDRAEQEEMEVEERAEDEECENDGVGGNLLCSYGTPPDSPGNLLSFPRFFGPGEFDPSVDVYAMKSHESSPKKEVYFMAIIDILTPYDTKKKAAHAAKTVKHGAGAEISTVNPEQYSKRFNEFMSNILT

Focal adhesion kinase 1 = Focal adhesion kinase 1 (Homo sapiens, UniProt Q05397); details: at 10 µM
[8] = target: Serine/threonine-protein kinase NIM1 (Homo sapiens, UniProt Q8IY84); details: at 10 µM
[9] = target: T4, Casein kinase I isoform alpha-like (Homo sapiens) (UniProt Q8N752); assay: Selectivity interaction (KinomeScan (DiscoverX)) EUB0001049a CSNK1A1L; details: at 1 µM
T4 sequence (whole entry): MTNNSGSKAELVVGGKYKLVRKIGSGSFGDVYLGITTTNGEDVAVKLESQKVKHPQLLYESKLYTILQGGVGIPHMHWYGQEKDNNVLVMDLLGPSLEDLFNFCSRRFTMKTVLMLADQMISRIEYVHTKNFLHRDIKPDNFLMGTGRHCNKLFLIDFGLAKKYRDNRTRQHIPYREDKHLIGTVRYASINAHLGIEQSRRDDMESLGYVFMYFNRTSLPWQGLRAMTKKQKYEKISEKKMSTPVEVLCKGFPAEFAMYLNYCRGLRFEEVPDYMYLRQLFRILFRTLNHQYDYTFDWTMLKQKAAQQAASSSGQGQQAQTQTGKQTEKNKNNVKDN

[10] = target: T5, Dual specificity tyrosine-phosphorylation-regulated kinase 3 (Homo sapiens) (UniProt O43781); assay: Selectivity interaction (Kinase panel (Z-LYTE Assay)) EUB0001632a DYRK3; details: at 10 µM
T5 sequence (whole entry): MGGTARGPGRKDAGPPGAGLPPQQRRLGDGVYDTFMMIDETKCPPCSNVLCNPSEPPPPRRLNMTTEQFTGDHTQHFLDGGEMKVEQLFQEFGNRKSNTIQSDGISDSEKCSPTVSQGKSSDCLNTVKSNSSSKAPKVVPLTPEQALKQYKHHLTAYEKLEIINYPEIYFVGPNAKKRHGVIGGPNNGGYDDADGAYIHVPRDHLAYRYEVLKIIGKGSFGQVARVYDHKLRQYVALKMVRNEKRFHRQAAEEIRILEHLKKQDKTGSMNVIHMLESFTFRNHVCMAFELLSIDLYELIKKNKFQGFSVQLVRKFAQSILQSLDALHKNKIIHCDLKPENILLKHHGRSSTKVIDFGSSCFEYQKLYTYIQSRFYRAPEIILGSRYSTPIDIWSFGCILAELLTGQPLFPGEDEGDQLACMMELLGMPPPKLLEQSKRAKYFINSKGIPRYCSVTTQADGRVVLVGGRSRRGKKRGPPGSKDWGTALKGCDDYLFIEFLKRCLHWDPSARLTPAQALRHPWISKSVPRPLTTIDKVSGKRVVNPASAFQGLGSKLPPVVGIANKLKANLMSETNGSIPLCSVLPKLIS

[11] = target: Serine/threonine-protein kinase PAK 2 (Homo sapiens) (UniProt Q13177); assay: Selectivity interaction (Kinase screening (Nanosyn)) EUB0000604a PAK2
Serine/threonine-protein kinase PAK 2 (Homo sapiens), sequence (Q13177 whole entry): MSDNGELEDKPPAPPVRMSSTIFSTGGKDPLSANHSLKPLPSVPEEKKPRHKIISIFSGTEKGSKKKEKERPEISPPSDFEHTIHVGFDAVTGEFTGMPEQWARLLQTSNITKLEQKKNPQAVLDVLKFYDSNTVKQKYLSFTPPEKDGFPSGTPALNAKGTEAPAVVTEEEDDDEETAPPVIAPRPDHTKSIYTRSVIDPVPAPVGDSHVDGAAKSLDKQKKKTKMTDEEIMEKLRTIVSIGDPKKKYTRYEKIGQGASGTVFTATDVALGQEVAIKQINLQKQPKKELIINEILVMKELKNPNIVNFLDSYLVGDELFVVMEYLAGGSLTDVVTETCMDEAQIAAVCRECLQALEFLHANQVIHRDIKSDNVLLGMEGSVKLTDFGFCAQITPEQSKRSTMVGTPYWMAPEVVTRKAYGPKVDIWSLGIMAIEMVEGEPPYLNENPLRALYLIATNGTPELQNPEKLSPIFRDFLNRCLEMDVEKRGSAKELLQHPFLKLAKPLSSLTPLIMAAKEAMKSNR

Calcium/calmodulin-dependent protein kinase type 1 (Homo sapiens), sequence (Q14012 whole entry, looked up): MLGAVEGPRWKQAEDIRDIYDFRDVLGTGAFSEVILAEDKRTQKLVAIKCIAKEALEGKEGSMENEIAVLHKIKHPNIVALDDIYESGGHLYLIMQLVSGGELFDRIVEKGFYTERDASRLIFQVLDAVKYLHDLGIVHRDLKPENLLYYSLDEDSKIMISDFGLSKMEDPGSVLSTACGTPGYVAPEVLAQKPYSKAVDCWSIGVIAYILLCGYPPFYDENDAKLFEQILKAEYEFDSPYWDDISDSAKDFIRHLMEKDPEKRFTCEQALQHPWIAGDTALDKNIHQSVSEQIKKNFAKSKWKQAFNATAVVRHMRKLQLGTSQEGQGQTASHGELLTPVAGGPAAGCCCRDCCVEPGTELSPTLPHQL
Tyrosine-protein kinase ABL1 (Homo sapiens), P00519 [F317I], sequence (P00519 whole entry F317I): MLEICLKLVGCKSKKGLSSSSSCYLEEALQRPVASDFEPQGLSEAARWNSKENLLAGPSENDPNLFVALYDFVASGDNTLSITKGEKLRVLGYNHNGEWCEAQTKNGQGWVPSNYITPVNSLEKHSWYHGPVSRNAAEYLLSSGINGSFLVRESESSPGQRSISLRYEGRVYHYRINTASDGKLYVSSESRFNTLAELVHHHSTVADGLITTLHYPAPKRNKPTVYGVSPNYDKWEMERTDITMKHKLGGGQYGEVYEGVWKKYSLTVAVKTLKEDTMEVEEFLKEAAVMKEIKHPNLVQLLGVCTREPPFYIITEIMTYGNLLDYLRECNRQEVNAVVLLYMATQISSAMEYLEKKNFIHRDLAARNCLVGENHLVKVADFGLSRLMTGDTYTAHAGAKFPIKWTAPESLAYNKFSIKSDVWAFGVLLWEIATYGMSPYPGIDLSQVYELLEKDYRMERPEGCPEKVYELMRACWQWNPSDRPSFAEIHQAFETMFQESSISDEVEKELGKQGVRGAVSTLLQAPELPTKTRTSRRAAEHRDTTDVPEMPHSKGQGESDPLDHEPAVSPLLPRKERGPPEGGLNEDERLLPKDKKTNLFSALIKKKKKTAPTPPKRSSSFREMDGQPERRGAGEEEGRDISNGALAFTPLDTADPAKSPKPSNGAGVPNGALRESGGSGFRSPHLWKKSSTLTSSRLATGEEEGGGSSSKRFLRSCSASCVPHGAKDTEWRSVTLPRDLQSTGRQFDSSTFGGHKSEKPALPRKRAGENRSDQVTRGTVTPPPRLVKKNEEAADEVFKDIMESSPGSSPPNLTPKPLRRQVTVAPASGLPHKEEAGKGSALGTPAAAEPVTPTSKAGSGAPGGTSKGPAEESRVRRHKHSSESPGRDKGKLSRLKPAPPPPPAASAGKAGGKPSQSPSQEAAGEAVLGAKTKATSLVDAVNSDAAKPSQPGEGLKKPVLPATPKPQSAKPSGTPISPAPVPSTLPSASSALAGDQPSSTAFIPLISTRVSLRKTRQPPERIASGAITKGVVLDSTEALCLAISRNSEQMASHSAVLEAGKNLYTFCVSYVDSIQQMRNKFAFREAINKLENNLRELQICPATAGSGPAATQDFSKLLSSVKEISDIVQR
Tyrosine-protein kinase Fyn (Homo sapiens), sequence (P06241 2-537 limits assumed): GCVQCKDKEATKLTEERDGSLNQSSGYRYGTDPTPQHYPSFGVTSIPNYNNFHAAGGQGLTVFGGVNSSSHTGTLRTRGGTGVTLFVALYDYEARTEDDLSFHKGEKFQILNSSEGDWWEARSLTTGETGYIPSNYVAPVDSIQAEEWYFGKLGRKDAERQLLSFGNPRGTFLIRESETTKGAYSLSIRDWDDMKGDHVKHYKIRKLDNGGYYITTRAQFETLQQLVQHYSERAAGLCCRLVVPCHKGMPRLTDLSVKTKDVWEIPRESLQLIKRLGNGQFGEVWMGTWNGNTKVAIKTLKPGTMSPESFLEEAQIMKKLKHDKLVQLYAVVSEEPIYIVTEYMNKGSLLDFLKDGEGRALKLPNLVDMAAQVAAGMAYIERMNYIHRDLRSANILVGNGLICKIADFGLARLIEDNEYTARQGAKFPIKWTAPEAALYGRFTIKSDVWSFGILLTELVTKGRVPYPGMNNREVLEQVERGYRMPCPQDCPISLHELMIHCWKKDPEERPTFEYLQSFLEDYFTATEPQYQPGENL
Focal adhesion kinase 1, sequence (Q05397 2-1052 limits assumed): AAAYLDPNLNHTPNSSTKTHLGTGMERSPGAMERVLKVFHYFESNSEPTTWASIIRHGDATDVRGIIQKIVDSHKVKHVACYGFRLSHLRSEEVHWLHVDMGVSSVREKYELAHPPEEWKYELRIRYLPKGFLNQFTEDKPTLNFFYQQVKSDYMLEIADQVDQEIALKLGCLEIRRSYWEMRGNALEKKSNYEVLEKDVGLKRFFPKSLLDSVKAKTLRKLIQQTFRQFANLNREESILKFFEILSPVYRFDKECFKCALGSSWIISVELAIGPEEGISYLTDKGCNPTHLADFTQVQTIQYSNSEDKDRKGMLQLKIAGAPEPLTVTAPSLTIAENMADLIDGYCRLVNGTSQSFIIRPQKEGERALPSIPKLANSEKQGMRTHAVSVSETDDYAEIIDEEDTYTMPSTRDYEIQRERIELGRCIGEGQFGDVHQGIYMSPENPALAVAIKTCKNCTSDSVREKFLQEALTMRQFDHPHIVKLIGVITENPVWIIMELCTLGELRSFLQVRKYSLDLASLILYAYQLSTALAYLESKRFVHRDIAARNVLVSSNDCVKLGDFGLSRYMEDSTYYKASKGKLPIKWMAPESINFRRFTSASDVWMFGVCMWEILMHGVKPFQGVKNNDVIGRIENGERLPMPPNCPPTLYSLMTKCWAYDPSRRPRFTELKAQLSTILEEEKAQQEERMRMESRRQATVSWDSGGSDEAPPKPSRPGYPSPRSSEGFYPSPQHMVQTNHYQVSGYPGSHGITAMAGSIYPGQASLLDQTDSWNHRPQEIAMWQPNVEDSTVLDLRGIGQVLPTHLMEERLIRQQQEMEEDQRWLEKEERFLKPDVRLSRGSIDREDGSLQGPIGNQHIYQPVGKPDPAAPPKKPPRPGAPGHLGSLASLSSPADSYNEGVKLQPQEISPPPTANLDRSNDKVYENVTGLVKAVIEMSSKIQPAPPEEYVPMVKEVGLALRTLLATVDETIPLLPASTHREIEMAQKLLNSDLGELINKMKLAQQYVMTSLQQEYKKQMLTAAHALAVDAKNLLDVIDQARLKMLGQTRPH
Serine/threonine-protein kinase NIM1, sequence (Q8IY84 whole entry, canonical isoform): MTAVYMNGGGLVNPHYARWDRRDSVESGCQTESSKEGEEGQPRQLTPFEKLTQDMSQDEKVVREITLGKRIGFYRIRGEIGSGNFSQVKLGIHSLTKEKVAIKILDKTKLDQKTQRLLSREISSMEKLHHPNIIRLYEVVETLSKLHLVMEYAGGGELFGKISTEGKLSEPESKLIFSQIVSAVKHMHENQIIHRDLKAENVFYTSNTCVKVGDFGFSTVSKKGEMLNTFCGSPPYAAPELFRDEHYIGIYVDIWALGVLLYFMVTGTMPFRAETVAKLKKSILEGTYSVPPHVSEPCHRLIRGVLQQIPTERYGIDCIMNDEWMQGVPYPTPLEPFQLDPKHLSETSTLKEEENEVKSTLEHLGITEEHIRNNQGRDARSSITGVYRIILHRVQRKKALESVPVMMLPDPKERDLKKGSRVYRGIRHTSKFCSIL

CN(C)C/C=C/C(=O)Nc1ccc(C(=O)N2CCCC(Nc3ncc(Cl)c(-c4c[nH]c5ccccc45)n3)C2)cc1 (configuration not stated)
% of control [1]: 70%

CN(C(=O)c1cnn2cccnc12)c1cc2c(cc1N1CCOCC1)C(=O)N(C[C@@H](F)C(C)(C)O)C2
dTM [2]: -0.6 K

CNC(=O)Nc1ccc(-c2nc(N3CC4CCC(C3)O4)c3cnn(C4CCC5(CC4)OCCO5)c3n2)cc1
% of inhibition [3]: 2%

N#Cc1cccc(-c2c[nH]c3ncnc(N4CCOCC4)c23)c1
% of control [4]: 89%

C=CC(=O)Nc1cc(-n2c(=O)ccc3cnc4ccc(-c5ccc(NS(C)(=O)=O)cc5)cc4c32)ccc1C
% of control [5]: 100%

COCC(=O)NC/C=C/c1ccc2ncnc(Nc3ccc(Oc4ccc(C)nc4)c(C)c3)c2c1 [CP-724714]
% of control [6]: 100%
% of control [7]: 100%

Cc1cc([C@@H](C)Nc2ccccc2C(=O)O)c2nc(N3CCOCC3)cc(=O)n2c1 [AZD-6482]
% of control (Focal adhesion kinase 1): 88%
% of control [8]: 100%

COc1cc(Nc2nc(C)cc(-c3cnn4nc(OC)ccc34)n2)cc(C(F)(F)F)c1
% of control [9]: 100%

Cn1cc(-n2cnc3c(NCc4nc5cc(Cl)c(Cl)cc5[nH]4)nc(N4CCOCC4)nc32)cn1
% of control [10]: 10.6%

Cc1cnc(Nc2ccc(F)cc2Cl)nc1-c1c[nH]c(C(=O)N[C@H](CO)c2cccc(Cl)c2)c1
% of inhibition [11]: 0%
